Reference: the NIST ThermoML archive (doi:10.1021/acs.jced.6b00985)
± gives the expanded uncertainty stated by the source.

Legend:
[1] = 293.15 K; 101.33 kPa; Liquid; Vibrating tube method
[2] = refractive index (Na D-line) (dimensionless); settings: 293.15 K; 101.33 kPa; Liquid; Standard Abbe refractometry

## CCC(=O)O [propanoic acid]
[1]
  mass density: 988 ± 8 kg/m3
[2]
  refractive index: 1.3809 ± 0.0011

## OC1CCCC1 [cyclopentanol]
[1]
  mass density: 948.7 ± 8 kg/m3
[2]
  refractive index: 1.4531 ± 0.0011

## CCCCOC(=O)/C=C\C(=O)OCCCC [dibutyl cis-butendioate]
[1]
  mass density: 990.1 ± 8.2 kg/m3
[2]
  refractive index: 1.4452 ± 0.0012

## CCCCCCC(C)=O [2-octanone]
[1]
  mass density: 819.9 ± 8 kg/m3
[2]
  refractive index: 1.4151 ± 0.0011

## C1CCCC1 [cyclopentane]
[1]
  mass density: 745.7 ± 8 kg/m3
[2]
  refractive index: 1.4066 ± 0.0011
